Measured values reported in the NIST ThermoML archive (doi:10.1016/j.fluid.2014.01.046).
Where “and” joins values, the source holds several entries; their conditions need not be identical. Identical values can stand only once. Numbers after ± are expanded uncertainties. Values belong to the compound of their own block, whether it stands above or below them.

Assays:
[1] = 298.15 K; 101.33 kPa; Liquid; Vibrating tube method
[2] = xn = mol fraction of the nth substance listed; settings: 298.15 K, 101 kPa, Liquid, Vibrating tube method

- mass density [1]: 785.106 ± 2 kg/m3
Compound: CCO [ethanol]

- mass density ([2]; x1 = 0.0013): 773.912 ± 2 kg/m3
- mass density ([2]; x1 = 0.0032): 774.059 ± 2 kg/m3
- mass density ([2]; x1 = 0.00735): 774.39 ± 2 kg/m3
- mass density ([2]; x1 = 0.00767): 774.433 ± 2 kg/m3
- mass density ([2]; x1 = 0.0142): 774.963 ± 2 kg/m3
- mass density ([2]; x1 = 0.0191): 775.4 ± 2 kg/m3
- mass density ([2]; x1 = 0.0404): 777.361 ± 2 kg/m3
- mass density ([2]; x1 = 0.0554): 778.816 ± 2 kg/m3
- mass density ([2]; x1 = 0.8496): 906.747 ± 2 kg/m3
- mass density ([2]; x1 = 0.8504): 906.951 ± 2 kg/m3
- mass density ([2]; x1 = 0.8533): 907.513 ± 2 kg/m3
- mass density ([2]; x1 = 0.8999): 918.584 ± 2 kg/m3
- mass density ([2]; x1 = 0.9245): 924.576 ± 2 kg/m3
- mass density ([2]; x1 = 0.969): 935.786 ± 2 kg/m3
Compound: CN(C)C=O [dimethylformamide] + C1CCCCC1
- mass density ([2]; x1 = 0.05): 778.28 ± 2 kg/m3 and 778.287 ± 2 kg/m3 and 778.289 ± 2 kg/m3

- mass density [1]: 943.827 ± 2 kg/m3
Compound: CN(C)C=O [dimethylformamide]

- mass density [1]: 773.814 ± 2 kg/m3
Compound: C1CCCCC1 [cyclohexane]
